How the values were obtained:
PGE2 = test: Intratumoral concentration of PGE2 in HT-29 tumors (Example 1); format: in vivo, CB17SCID male mice; details: HT-29 tumor, day 24
Method: (§1) 48 CB17SCID male mice were implanted with 2.5×10^6 HT29 cells. Growth of the tumor was calculated for each animal using a caliper and the equation: V=π×ab^2/6.
(§2) Mouse weight and tumor volume measurements were taken on days 0, 3, 6, 9, 12, 15, 18, 21, and 22 following randomization.

PGE-2 = test: Tumoral PGE-2 in HT-29 tumors (Example 5); format: in vivo, CB17SCID mice; details: HT-29 tumor, day 24
Method: (§3) HT-29 cells were prepared and implanted by standard methods using the same procedure as Example 1.
(§4) 42 CB17SCID mice were implanted with 2.5×10^6 HT-29 cells.
(§5) Mouse weight and tumor volume measurements were taken on days 0, 3, 6, 9, 12, 15, 18, 21, and 22 following randomization. After 22 days dosing, the blood from each animal was collected at 2 hours and 6 hours post dose.

[1] = tested on: CT26 murine colon carcinoma cells; test: CT26 tumor growth, Compound A01 with anti-mPD-L1 (Example 4); format: in vivo, Female Envigo BALB/c (BALB/cAnNHsd) mice; details: for tumor growth (tumor volume): all doses 10 mg/kg, A01 oral daily, antibodies i.p.
Method: CT26 murine colon carcinoma cells were prepared as in Example 2. Female Envigo BALB/c (BALB/cAnNHsd) were inoculated with 5×10^5 CT26 cells suspended in PBS (200 μL) subcutaneously high in the axilla (just under the fore limb). […] The antibodies were administered via i.p. injection on days 3, 6, 9, 12, and 16 following inoculation. Compound A01 was given per oral daily. The mice were euthanized two hours following final dose on Day 16 and samples were prepared for testing.

[2] = Plasma concentration of Compound A01 and erlotinib (Example 1); format: in vivo, CB17SCID male mice; details: for concentration at 2 h / concentration at 6 h: male, CB17SCID, mouse, plasma; for concentration at 2 h: 2 hours post dosing; for concentration at 6 h: 6 hours post dosing
Method: as §1, §2

prostaglandin E2 (PGE2) = test: CT26 tumoral PGE-2 (Example 6); format: in vivo, Female Harlan Balb/c mice (BALB/cAnNHsd)
Method: CT26 murine colon carcinoma cells were prepared as in Example 2. Female Harlan Balb/c mice (BALB/cAnNHsd) were inoculated with 5×10^5 CT26 cells suspended in PBS (200 μL) subcutaneously high in the axilla (just under the fore limb). All mice were sorted into study groups based on caliper measurement estimation of tumor burden on Day 8 when the mean tumor burden for all animals was approximately 79 mm^3 (range of group means, 75-83 mm^3).

[3] = tested on: HT-29 xenograft colon carcinoma model; test: HT-29 xenograft tumor volume, Compound A01 vs celecoxib (Example 5); format: in vivo, CB17SCID mice
Method: as §3, §4, §5

[4] = Intratumoral concentration of Compound A01 and erlotinib (Example 1); format: in vivo, CB17SCID male mice; details: for Intratumoral concentration of Compound A01 (mean ± SD): HT-29 tumor, day 24
Method: as §1, §2

[5] = Body weight in HT-29 xenograft study (Example 1); format: in vivo, CB17SCID male mice
Method: as §1, §2

[6] = tested on: immune cell infiltration into the tumors (CT26); test: Immune response to CT26 tumors: tumor-infiltrating and splenic immune cells (Example 3); format: in vivo, Female BALB/c mice; details: Day 16; compared to vehicle treated mice
Method: Female BALB/c mice were inoculated with 10^5 CT26 colorectal cancer cells as in Example 2. […] Anti-PD1 antibody was administered i.p. (200 μg/mouse) at days 9 and 14 post inoculation. Tumors were analyzed at day 16 (7 days after first anti-PD1 administration).

[2H]C([2H])([2H])c1cc(Br)cc2c1O[C@H](C(F)(F)F)C(C(=O)O)=C2 [Compound A01, (S)-6-bromo-8-trideuteromethyl-2-(trifluoromethyl)-2H-chromene-3-carboxylic acid]
Intratumoral concentration of PGE2 (mean ± SD) (PGE2; A01 1 mg/kg): 14.01 ± 30.3 µg/g | Intratumoral concentration of PGE2 (mean ± SD) (PGE2; A01 10 mg/kg): 0 µg/g | Mean PGE-2 (tumoral) (PGE-2; 0.1 mg/kg): 203.9 ± 157.9 ng/g | Mean PGE-2 (tumoral) (PGE-2; 0.3 mg/kg): 237.3 ± 119.8 ng/g | Mean PGE-2 (tumoral) (PGE-2; 1 mg/kg): 90.7 ± 105.1 ng/g | Mean PGE-2 (tumoral) (PGE-2; 3 mg/kg): 94.3 ± 78.4 ng/g | Mean PGE-2 (tumoral) (PGE-2; 10 mg/kg): 45.5 ± 73.4 ng/g | tumor growth compared to vehicle and isotype controls ([1]; CT26, doses 10 mg/kg): slowed | tumor growth (tumor volume) ([1]; Day 3): 0 mm^3 | tumor growth (tumor volume) ([1]; Day 4): 0 mm^3 | tumor growth (tumor volume) ([1]; Day 6): 8 mm^3 | tumor growth (tumor volume) ([1]; Day 9): 97 mm^3 | tumor growth (tumor volume) ([1]; Day 11): 242 mm^3 | tumor growth (tumor volume) ([1]; Day 13): 442 mm^3 | tumor growth (tumor volume) ([1]; Day 16): 759 mm^3 | effect of oral dosing of erlotinib on plasma concentration of Compound A01 ([2]; 2 and 6 hours post dosing): influenced | concentration at 2 h ([2]; A01 1 mg/kg oral): 3610 ± 1350 ng/mL | concentration at 2 h ([2]; A01 10 mg/kg oral): 28400 ± 6020 ng/mL | concentration at 6 h ([2]; A01 1 mg/kg oral): 2250 ± 529 ng/mL | concentration at 6 h ([2]; A01 10 mg/kg oral): 19100 ± 5170 ng/mL | Mean PGE-2 Concentration (CT26 tumoral) (prostaglandin E2 (PGE2); 0.3 mg/kg (Group 6)): 670 ng/g | Mean PGE-2 Concentration (CT26 tumoral) (prostaglandin E2 (PGE2); 1 mg/kg (Group 5)): 278 ng/g | Mean PGE-2 Concentration (CT26 tumoral) (prostaglandin E2 (PGE2); 30 mg/kg (Group 2)): 150 ng/g | Tumor Volume ([3]; Day 0, 0.1 mg/kg oral daily): 65.8 mm^3 | Tumor Volume ([3]; Day 0, 0.3 mg/kg oral daily): 70.9 mm^3 | Tumor Volume ([3]; Day 0, 1 mg/kg oral daily): 68.5 mm^3 | Tumor Volume ([3]; Day 0, 3 mg/kg oral daily): 68.4 mm^3 | Tumor Volume ([3]; Day 0, 10 mg/kg oral daily): 69.0 mm^3 | Tumor Volume ([3]; Day 3, 0.1 mg/kg oral daily): 88.5 mm^3 | Tumor Volume ([3]; Day 3, 0.3 mg/kg oral daily): 83.8 mm^3 | Tumor Volume ([3]; Day 3, 1 mg/kg oral daily): 85.2 mm^3 | Tumor Volume ([3]; Day 3, 3 mg/kg oral daily): 80.3 mm^3 | Tumor Volume ([3]; Day 3, 10 mg/kg oral daily): 83.9 mm^3 | Tumor Volume ([3]; Day 6, 0.1 mg/kg oral daily): 165.0 mm^3 | Tumor Volume ([3]; Day 6, 0.3 mg/kg oral daily): 132.9 mm^3 | Tumor Volume ([3]; Day 6, 1 mg/kg oral daily): 152.8 mm^3 | Tumor Volume ([3]; Day 6, 3 mg/kg oral daily): 121.9 mm^3 | Tumor Volume ([3]; Day 6, 10 mg/kg oral daily): 107.7 mm^3 | Tumor Volume ([3]; Day 9, 0.1 mg/kg oral daily): 283.1 mm^3 | Tumor Volume ([3]; Day 9, 0.3 mg/kg oral daily): 231.5 mm^3 | Tumor Volume ([3]; Day 9, 1 mg/kg oral daily): 239.8 mm^3 | Tumor Volume ([3]; Day 9, 3 mg/kg oral daily): 190.1 mm^3 | Tumor Volume ([3]; Day 9, 10 mg/kg oral daily): 176.0 mm^3 | Tumor Volume ([3]; Day 12, 0.1 mg/kg oral daily): 360.3 mm^3 | Tumor Volume ([3]; Day 12, 0.3 mg/kg oral daily): 298.2 mm^3 | Tumor Volume ([3]; Day 12, 1 mg/kg oral daily): 311.1 mm^3 | Tumor Volume ([3]; Day 12, 3 mg/kg oral daily): 279.5 mm^3 | Tumor Volume ([3]; Day 12, 10 mg/kg oral daily): 257.7 mm^3 | Tumor Volume ([3]; Day 15, 0.1 mg/kg oral daily): 416.8 mm^3 | Tumor Volume ([3]; Day 15, 0.3 mg/kg oral daily): 350.7 mm^3 | Tumor Volume ([3]; Day 15, 1 mg/kg oral daily): 364.8 mm^3 | Tumor Volume ([3]; Day 15, 3 mg/kg oral daily): 329.1 mm^3 | Tumor Volume ([3]; Day 15, 10 mg/kg oral daily): 332.0 mm^3 | Tumor Volume ([3]; Day 18, 0.1 mg/kg oral daily): 640.9 mm^3 | Tumor Volume ([3]; Day 18, 0.3 mg/kg oral daily): 530.8 mm^3 | Tumor Volume ([3]; Day 18, 1 mg/kg oral daily): 532.6 mm^3 | Tumor Volume ([3]; Day 18, 3 mg/kg oral daily): 445.1 mm^3 | Tumor Volume ([3]; Day 18, 10 mg/kg oral daily): 357.3 mm^3 | Tumor Volume ([3]; Day 21, 0.1 mg/kg oral daily): 900.4 mm^3 | Tumor Volume ([3]; Day 21, 0.3 mg/kg oral daily): 723.5 mm^3 | Tumor Volume ([3]; Day 21, 1 mg/kg oral daily): 730.9 mm^3 | Tumor Volume ([3]; Day 21, 3 mg/kg oral daily): 622.8 mm^3 | Tumor Volume ([3]; Day 21, 10 mg/kg oral daily): 453.6 mm^3 | Tumor Volume ([3]; Day 22, 0.1 mg/kg oral daily): 987.7 mm^3 | Tumor Volume ([3]; Day 22, 0.3 mg/kg oral daily): 753.5 mm^3 | Tumor Volume ([3]; Day 22, 1 mg/kg oral daily): 772.1 mm^3 | Tumor Volume ([3]; Day 22, 3 mg/kg oral daily): 699.4 mm^3 | Tumor Volume ([3]; Day 22, 10 mg/kg oral daily): 561.8 mm^3 | Intratumoral concentration of Compound A01 (mean ± SD) ([4]; A01 1 mg/kg): 1478.5 ± 652.1 µg/g | Intratumoral concentration of Compound A01 (mean ± SD) ([4]; A01 10 mg/kg): 9720 ± 2758.7 µg/g | increase in intratumor level of Compound A01 on addition of erlotinib ([4]; with erlotinib vs Compound A01 in the absence of erlotinib): 1.5 fold | Body weight ([5]; Day 0, A01 1 mg/kg oral daily): 23.4 g | Body weight ([5]; Day 0, A01 10 mg/kg oral daily): 23.5 g | Body weight ([5]; Day 3, A01 1 mg/kg oral daily): 22.4 g | Body weight ([5]; Day 6, A01 1 mg/kg oral daily): 21.6 g | Body weight ([5]; Day 6, A01 10 mg/kg oral daily): 22.0 g | Body weight ([5]; Day 15, A01 1 mg/kg oral daily): 20.0 g | Body weight ([5]; Day 18, A01 1 mg/kg oral daily): 19.9 g | Body weight ([5]; Day 21, A01 1 mg/kg oral daily): 19.9 g | Body weight ([5]; Day 22, A01 1 mg/kg oral daily): 20.0 g | CD45+ (leukocyte), CD3+, CD8+, CD8+IFNγ+, CD4+IFNγ+, CD8+TNFα+ and CD4+TNFα+ cell infiltration into the tumors [6]: increase

From patent publication US12544356B2, “Combination of a chromene compound and a second active agent” (EUCLISES PHARMACEUTICALS, INC., priority 2016, dated 2026)
